The record followed here is patent publication US10894784B2, “Heteroarylbenzimidazole compounds” (BAYER PHARMA AKTIENGESELLSCHAFT, priority 2015, dated 2021).

For one test, the target named is TBK1 (Homo sapiens (Human), UniProt Q9UHD2). Description: TBK1 low ATP kinase assay (in vitro assay 1). Type of test: biochemical. The note with it: TBK1 low ATP kinase assay IC50, in vitro assay 1.
TBK1, sequence (Q9UHD2 whole entry): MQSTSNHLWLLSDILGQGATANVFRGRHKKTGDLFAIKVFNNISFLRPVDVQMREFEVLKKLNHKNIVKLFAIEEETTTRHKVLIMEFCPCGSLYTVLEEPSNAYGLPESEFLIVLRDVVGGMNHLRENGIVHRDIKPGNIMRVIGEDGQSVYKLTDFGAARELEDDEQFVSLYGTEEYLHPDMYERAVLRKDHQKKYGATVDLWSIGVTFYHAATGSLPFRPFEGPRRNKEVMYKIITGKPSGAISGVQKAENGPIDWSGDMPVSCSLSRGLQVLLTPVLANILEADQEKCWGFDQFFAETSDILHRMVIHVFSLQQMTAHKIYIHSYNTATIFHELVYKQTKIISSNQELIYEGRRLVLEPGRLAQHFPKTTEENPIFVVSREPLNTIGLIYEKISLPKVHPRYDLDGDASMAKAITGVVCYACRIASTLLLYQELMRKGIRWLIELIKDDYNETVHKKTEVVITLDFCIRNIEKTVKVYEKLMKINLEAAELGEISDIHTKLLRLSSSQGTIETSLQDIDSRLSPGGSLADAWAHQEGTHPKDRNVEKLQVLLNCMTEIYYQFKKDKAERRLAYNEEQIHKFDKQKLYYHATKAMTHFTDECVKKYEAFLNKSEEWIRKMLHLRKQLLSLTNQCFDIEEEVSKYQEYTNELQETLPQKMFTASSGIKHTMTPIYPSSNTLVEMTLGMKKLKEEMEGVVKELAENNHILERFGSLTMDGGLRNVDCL
In turn, `Cc1cc(-c2ccc3nc(Nc4cc(C(C)N5CCN(C(=O)CC(F)(F)F)CC5)ccn4)[nH]c3c2)ncn1` (single isomer, unassigned) [Example 30.03.01.A, 3,3,3-trifluoro-1-{4-[(1R or 1S)-1-(2-{[6-(6-methylpyrimidin-4-yl)-1H-benzimidazol-2-yl]amino}pyridin-4-yl)ethyl]piperazin-1-yl}propan-1-one] had an IC50 of 18 nM.

Staying with this test, now noted: in vitro assay 1, read-out: TBK1 low ATP kinase assay IC50.
Turning to `CC(c1ccnc(Nc2nc3ccc(-c4cc(N5CCCC5)ncn4)cc3[nH]2)c1)N1CCN(C(=O)OC(C)(C)C)CC1` (single isomer, unassigned) [Example 117.01, tert-butyl 4-{(1R or 1S)-1-[2-({6-[6-(pyrrolidin-1-yl)pyrimidin-4-yl]-1H-benzimidazol-2-yl}amino)pyridin-4-yl]ethyl}piperazine-1-carboxylate], the half-inhibitory concentration (IC50) is 2 nM.
The same measure, in the same setting: under `Cc1c(-c2ccc3nc(Nc4cc(CN5CCN(C(=O)CC(F)(F)F)CC5)ccn4)[nH]c3c2)ncnc1C(F)(F)F` [Example 183.02, 3,3,3-trifluoro-1-(4-{[2-({6-[5-methyl-6-(trifluoromethyl)pyrimidin-4-yl]-1H-benzimidazol-2-yl}amino)pyridin-4-yl]methyl}piperazin-1-yl)propan-1-one] stands 2100 nM; under `COCCCS(=O)(=O)N1CCN(Cc2ccnc(Nc3nc4ccc(-c5ncncc5OC)cc4[nH]3)c2)CC1` [Example 35.01.10, N-[4-({4-[(3-methoxypropyl)sulfonyl]piperazin-1-yl}methyl)pyridin-2-yl]-6-(5-methoxypyrimidin-4-yl)-1H-benzimidazol-2-amine], 35 nM; under “3,3,3-trifluoro-1-{4-[(1R or 1S)-1-{2-[(6-{1-[(1-methylcyclopropyl)methyl]-1H-pyrazol-4-yl}-1H-benzimidazol-2-yl)amino]pyridin-4-yl}ethyl]piperazin-1-yl}propan-1-one [Example 68.02]”, 1.5 nM.
Take `CC(c1ccnc(Nc2nc3ccc(-c4cc(OCC(F)(F)C(F)(F)F)ncn4)cc3[nH]2)c1)N1CCN(C(=O)C2(C(F)(F)F)CC2)CC1` (single isomer, unassigned) [Example 166.04, (4-{(1R or 1S)-1[2-({6-[6-(2,2,3,3,3-pentafluoropropoxy)pyrimidin-4-yl]-1H-benzimidazol-2-yl}amino)pyridin-4-yl]ethyl}piperazin-1-yl)[1-(trifluoromethyl)cyclopropyl]methanone]: the IC50 was 54.2 nM.
Still for that read-out and setting: under `O=C(C1CCC1)N1CCN(Cc2ccnc(Nc3nc4ccc(-c5cnn(CC(F)(F)F)c5)cc4[nH]3)c2)CC1` [Example 58.01.01, cyclobutyl(4-{[2-({6-[1-(2,2,2-trifluoroethyl)-1H-pyrazol-4-yl]-1H-benzimidazol-2-yl}amino)pyridin-4-yl]methyl}piperazin-1-yl)methanone] stands 12.8 nM.
On the same count and under the same terms, under `O=C(CC(F)(F)F)N1CCN(Cc2ccnc(Nc3nc4ccc(-c5ccn(CC6CC6)c(=O)c5)cc4[nH]3)c2)CC1` [Example 44.01, 1-(cyclopropylmethyl)-4-{2-[(4-{[4-(3,3,3-trifluoropropanoyl)piperazin-1-yl]methyl}pyridin-2-yl)amino]-1H-benzimidazol-6-yl}pyridin-2(1H)-one] stands 94 nM; under “1-(4-{(1R or 1S)-1-[2-({6-[1-(cyclopentylmethyl)-1H-pyrazol-4-yl]-1H-benzimidazol-2-yl}amino)pyridin-4-yl]ethyl}piperazin-1-yl)-3,3,3-trifluoropropan-1-one [Example 71.02]”, 7.1 nM.
The same measure, in the same setting: under `CC(c1ccnc(Nc2nc3ccc(-c4cc(N5CC(C(F)(F)F)C5)ncn4)cc3[nH]2)c1)N1CCN(C(=O)C2CC2)CC1` (single isomer, unassigned) [Example 164.03, cyclopropyl{4-[(1R or 1S)-1-{2-[(6-{6-[3-(trifluoromethyl)azetidin-1-yl]pyrimidin-4-yl}-1H-benzimidazol-2-yl)amino]pyridin-4-yl}ethyl]piperazin-1-yl}methanone] stands 0.558 nM; under `CC(C)(C)OC(=O)N1CCN(Cc2ccnc(Nc3nc4ccc(-c5cnc(Br)cn5)cc4[nH]3)c2)CC1` [Example 140.01, tert-butyl 4-[(2-{[6-(5-bromopyrazin-2-yl)-1H-benzimidazol-2-yl]amino}pyridin-4-yl)methyl]piperazine-1-carboxylate], 13 nM.
As for `CC(C)Nc1cc(-c2ccc3nc(Nc4cc(CN5CCN(C(=O)C6CC6)CC5)ccn4)[nH]c3c2)ncn1` [Example 154.03, cyclopropyl(4-{[2-({6-[6-(propan-2-ylamino)pyrimidin-4-yl]-1H-benzimidazol-2-yl}amino)pyridin-4-yl]methyl}piperazin-1-yl)methanone], the IC50 is 1.4 nM.
The same measure, in the same setting: next, `COc1c(-c2ccc3nc(Nc4cc(C(C)N5CCN(C(=O)OC(C)(C)C)CC5)ccn4)[nH]c3c2)ncnc1N1CCC1` (single isomer, unassigned) [Example 111.01, tert-butyl 4-{(1R or 1S)-1-[2-({6-[6-(azetidin-1-yl)-5-methoxypyrimidin-4-yl]-1H-benzimidazol-2-yl}amino)pyridin-4-yl]ethyl}piperazine-1-carboxylate]: 2.6 nM; `Cc1nccc(-c2ccc3nc(Nc4cc(C(C)N5CCN(C(=O)C6CCC6)CC5)ccn4)[nH]c3c2)n1` (single isomer, unassigned) [Example 24.05.02.B, cyclobutyl{4-[(1S or 1R)-1-(2-{[6-(2-methylpyrimidin-4-yl)-1H-benzimidazol-2-yl]amino}pyridin-4-yl)ethyl]piperazin-1-yl}methanone]: 55.1 nM; `Cc1nc(-c2ccc3nc(Nc4cc(CN5CCN(C(=O)CC(F)(F)F)CC5)ccn4)[nH]c3c2)cc(N(C)C)n1` [Example 190.02, 1-(4-{[2-({6-[6-(dimethylamino)-2-methylpyrimidin-4-yl]-1H-benzimidazol-2-yl}amino)pyridin-4-yl]methyl}piperazin-1-yl)-3,3,3-trifluoropropan-1-one]: 868 nM.
On the same count and under the same terms, under `CC(c1ccnc(Nc2nc3ccc(-c4cnn(CC5CC5(F)F)c4)cc3[nH]2)c1)N1CCN(C(=O)C2CC2)CC1` (single isomer, unassigned) [Example 55.03.01, cyclopropyl{4-[(1R or 1S)-1-(2-{[6-(1-{[(1R or 1S)-2,2-difluorocyclopropyl]methyl}-1H-pyrazol-4-yl)-1H-benzimidazol-2-yl]amino}pyridin-4-yl)ethyl]piperazin-1-yl}methanone] stands 0.61 nM; under `Cc1cccc(-c2ccc3nc(Nc4cc(CN5CCN(C(=O)C6CC6)CC5)ccn4)[nH]c3c2)n1` [Example 12.02, cyclopropyl{4-[(2-{[6-(6-methylpyridin-2-yl)-1H-benzimidazol-2-yl]amino}pyridin-4-yl)methyl]piperazin-1-yl}methanone], 924 nM.
In the case of `CCOc1c(-c2ccncc2OC)ccc2nc(Nc3cc(CN4CCN(C(=O)C5CC5)CC4)ccn3)[nH]c12` [Example 51.03, cyclopropyl{4-[(2-{[7-ethoxy-6-(3-methoxypyridin-4-yl)-1H-benzimidazol-2-yl]amino}pyridin-4-yl)methyl]piperazin-1-yl}methanone], the IC50 was 113 nM.
Regarding `COc1cnccc1-c1ccc2nc(Nc3cc(CN4CCN(C(=O)OC(C)(C)C)CC4)ccn3)[nH]c2c1` [Example 04.01, tert-butyl 4-[(2-{[6-(3-methoxypyridin-4-yl)-1H-benzimidazol-2-yl]amino}pyridin-4-yl)methyl]piperazine-1-carboxylate], the IC50 amounted to 28.5 nM.
`CC(c1ccnc(Nc2nc3ccc(-c4cnn(CC(F)F)c4)cc3[nH]2)c1)N1CCN(C(=O)CC(F)(F)F)CC1` (single isomer, unassigned) [Example 87.01, 1-(4-{(1R or 1S)-1-[2-({6-[1-(2,2-difluoroethyl)-1H-pyrazol-4-yl]-1H-benzimidazol-2-yl}amino)pyridin-4-yl]ethyl}piperazin-1-yl)-3,3,3-trifluoropropan-1-one]: the IC50 was found to be 2.3 nM.
The same measure, in the same setting: next, `Cc1noc(-c2ccc3nc(Nc4cc(CN5CCN(c6ccccc6)CC5)ccn4)[nH]c3c2)n1` [Example 101.04, 6-(3-methyl-1,2,4-oxadiazol-5-yl)-N-{4-[(4-phenylpiperazin-1-yl)methyl]pyridin-2-yl}-1H-benzimidazol-2-amine]: 3000 nM; `CC(c1ccnc(Nc2nc3ccc(-c4cnn(C(C)C5CC5)c4)cc3[nH]2)c1)N1CCN(C(=O)OC(C)(C)C)CC1` (single isomer, unassigned) [Example 74.01, tert-butyl 4-[(1R or 1S)-1-{2-[(6-{1-[(1RS)-1-cyclopropylethyl]-1H-pyrazol-4-yl}-1H-benzimidazol-2-yl)amino]pyridin-4-yl}ethyl]piperazine-1-carboxylate]: 120 nM.
Same read-out and setting: under `Cn1ccc(-c2ccc3nc(Nc4cc(CN5CCN(C(=O)CC(F)(F)F)CC5)ccn4)[nH]c3c2)n1` [Example 40.01, 3,3,3-trifluoro-1-{4-[(2-{[6-(1-methyl-1H-pyrazol-3-yl)-1H-benzimidazol-2-yl]amino}pyridin-4-yl)methyl]piperazin-1-yl}propan-1-one] stands 1130 nM; under `O=C(CC(F)(F)F)N1CCN(Cc2ccnc(Nc3nc4ccc(-c5ncnc(NCC6CC6)c5F)cc4[nH]3)c2)CC1` [Example 195.02, 1-[4-({2-[(6-{6-[(cyclopropylmethyl)amino]-5-fluoropyrimidin-4-yl}1H-benzimidazol-2-yl)amino]pyridin-4-yl}methyl)piperazin-1-yl]-3,3,3-trifluoropropan-1-one], 33.7 nM.
Consider `CN(C)c1nccnc1-c1ccc2nc(Nc3cc(CN4CCN(C(=O)C5CC5)CC4)ccn3)[nH]c2c1` [Example 196.03, cyclopropyl(4-{[2-({6-[3-(dimethylamino)pyrazin-2-yl]-1H-benzimidazol-2-yl}amino)pyridin-4-yl]methyl}piperazin-1-yl)methanone], for which the IC50 is 1420 nM.
The same measure, in the same setting: next, `O=C(CC(F)(F)F)N1CCN(Cc2ccnc(Nc3nc4ccc(-c5ncccn5)cc4[nH]3)c2)CC1` [Example 180.02, 3,3,3-trifluoro-1-{4-[(2-{[6-(pyrimidin-2-yl)-1H-benzimidazol-2-yl]amino}pyridin-4-yl)methyl]piperazin-1-yl}propan-1-one]: 556 nM.
